Where “and” joins values, the source holds several entries; their conditions need not be identical. Equal values may be shown once. Toxic doses and inconclusive results are not listed. How the source made its calls: active means survival T/C of 150% or more; inactive means T/C below 125% in these data.
System: CD2F1 mice, L1210 leukemia ip, survival T/C
Test: NCI In Vivo Anticancer Drug Screen. Data for tumor model L1210 Leukemia (intraperitoneal) in CD2F1 (CDF1) mice
Settings: higher = longer survival
In short: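 In this screen, transplantable tumors were grown in mice given either the compound or its vehicle. Results were expressed as the treated measurement relative to the control measurement.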

[1] = endpoint: mean survival time, dose: 100.0 mg/kg/injection, schedule: Q04DX003 (ip), vehicle: saline with Tween-80
[2] = endpoint: mean survival time, dose: 200.0 mg/kg/injection, schedule: Q04DX003 (ip), vehicle: saline with Tween-80
[3] = endpoint: mean survival time, dose: 400.0 mg/kg/injection, schedule: Q04DX003 (ip), vehicle: saline with Tween-80
[4] = endpoint: mean survival time, dose: 50.0 mg/kg/injection, schedule: Q01DX009 (ip), vehicle: saline with Tween-80
[5] = endpoint: mean survival time, dose: 100.0 mg/kg/injection, schedule: Q01DX001 (ip), vehicle: saline
[6] = endpoint: mean survival time, dose: 200.0 mg/kg/injection, schedule: Q01DX001 (ip), vehicle: saline
[7] = endpoint: mean survival time, dose: 100.0 mg/kg/injection, schedule: Q01DX009 (ip), vehicle: saline with Tween-80
[8] = endpoint: mean survival time, dose: 200.0 mg/kg/injection, schedule: Q01DX009 (ip), vehicle: saline with Tween-80

Measured: T/C

Clc1ccc(Nc2ccccc2)cc1
inactive: endpoint: mean survival time, dose: 100.0 mg/kg/injection, schedule: Q01DX001 (ip), vehicle: other 90 % of control | endpoint: mean survival time, dose: 200.0 mg/kg/injection, schedule: Q01DX001 (ip), vehicle: other 90 % of control | endpoint: mean survival time, dose: 400.0 mg/kg/injection, schedule: Q01DX001 (ip), vehicle: other 90 % of control

[Cl][Pt][Cl].c1ccc([SeH]c2ccccc2)cc1.c1ccc([SeH]c2ccccc2)cc1
inactive: endpoint: mean survival time, dose: 25.0 mg/kg/injection, schedule: Q04DX003 (ip), vehicle: other 97 % of control | endpoint: mean survival time, dose: 50.0 mg/kg/injection, schedule: Q04DX003 (ip), vehicle: other 102 % of control | endpoint: mean survival time, dose: 100.0 mg/kg/injection, schedule: Q04DX003 (ip), vehicle: other 98 % of control | endpoint: mean survival time, dose: 200.0 mg/kg/injection, schedule: Q04DX003 (ip), vehicle: other 101 % of control | endpoint: mean survival time, dose: 400.0 mg/kg/injection, schedule: Q04DX003 (ip), vehicle: other 100 % of control

O=c1[nH]cc(NCCCc2ccccc2)c(=O)[nH]1
inactive: [1] 102 % of control | [2] 104 % of control | [3] 96 % of control

C1CC[N-]CC1.CC(=N\O)/C(C)=N/O.CC(=N\O)/C(C)=N/O.[CH2-]CCN1CCOCC1.[Co+2]
inactive: endpoint: mean survival time, dose: 25.0 mg/kg/injection, schedule: Q01DX009 (ip), vehicle: saline with Tween-80 105 % of control | endpoint: mean survival time, dose: 25.0 mg/kg/injection, schedule: Q04DX003 (ip), vehicle: saline with Tween-80 103 % of control | [4] 105 % of control | endpoint: mean survival time, dose: 50.0 mg/kg/injection, schedule: Q04DX003 (ip), vehicle: saline with Tween-80 106 % of control | [1] 112 % of control

COc1ccc(CCNC2c3ccccc3C=Cc3ccccc32)cc1OC
inactive: endpoint: mean survival time, dose: 50.0 mg/kg/injection, schedule: Q01DX001 (ip), vehicle: saline with Tween-80 107 % of control | [5] 91 % of control | [6] 100 % of control

COc1ccc2ccccc2c1C1NC(=O)c2ccccc2N1 (configuration not stated)
inactive: endpoint: mean survival time, dose: 12.5 mg/kg/injection, schedule: Q01DX009 (ip), vehicle: Klucel (hydroxypropylcellulose) (HPC) 95 % of control and 102 % of control | endpoint: mean survival time, dose: 25.0 mg/kg/injection, schedule: Q01DX009 (ip), vehicle: Klucel (hydroxypropylcellulose) (HPC) 101 % of control and 102 % of control | endpoint: mean survival time, dose: 50.0 mg/kg/injection, schedule: Q01DX009 (ip), vehicle: Klucel (hydroxypropylcellulose) (HPC) 105 % of control and 107 % of control | endpoint: mean survival time, dose: 100.0 mg/kg/injection, schedule: Q01DX009 (ip), vehicle: Klucel (hydroxypropylcellulose) (HPC) 101 % of control and 104 % of control | endpoint: mean survival time, dose: 200.0 mg/kg/injection, schedule: Q01DX009 (ip), vehicle: Klucel (hydroxypropylcellulose) (HPC) 104 % of control and 105 % of control | endpoint: mean survival time, dose: 400.0 mg/kg/injection, schedule: Q01DX009 (ip), vehicle: Klucel (hydroxypropylcellulose) (HPC) 119 % of control and 96 % of control

COc1cc2c(c(OC)c1OC)-c1cccc(=O)cc1C(NC(C)=O)CC2 (configuration not stated)
inactive: endpoint: median survival time, dose: 2.5 mg/kg/injection, schedule: Q01DX005 (ip), vehicle: saline 107 % of control | endpoint: median survival time, dose: 5.0 mg/kg/injection, schedule: Q01DX005 (ip), vehicle: saline 111 % of control | endpoint: median survival time, dose: 10.0 mg/kg/injection, schedule: Q01DX005 (ip), vehicle: saline 108 % of control and 111 % of control | endpoint: median survival time, dose: 20.0 mg/kg/injection, schedule: Q01DX005 (ip), vehicle: saline 117 % of control and 111 % of control | endpoint: median survival time, dose: 40.0 mg/kg/injection, schedule: Q01DX005 (ip), vehicle: saline 116 % of control and 111 % of control | endpoint: median survival time, dose: 80.0 mg/kg/injection, schedule: Q01DX005 (ip), vehicle: saline 122 % of control | endpoint: median survival time, dose: 160.0 mg/kg/injection, schedule: Q01DX005 (ip), vehicle: saline 122 % of control

CCOC(=O)C(Cl)C(=O)OCC
inactive: endpoint: mean survival time, dose: 100.0 mg/kg/injection, schedule: Q01DX001 (ip), vehicle: saline with Tween-80 108 % of control and 109 % of control | endpoint: mean survival time, dose: 200.0 mg/kg/injection, schedule: Q01DX001 (ip), vehicle: saline with Tween-80 104 % of control and 105 % of control | endpoint: mean survival time, dose: 400.0 mg/kg/injection, schedule: Q01DX001 (ip), vehicle: saline with Tween-80 120 % of control and 111 % of control

C[n+]1ccccc1
inactive: endpoint: mean survival time, dose: 100.0 mg/kg/injection, schedule: Q01DX009 (ip), vehicle: saline 97 % of control | endpoint: mean survival time, dose: 100.0 mg/kg/injection, schedule: Q04DX002 (ip), vehicle: other 96 % of control | endpoint: mean survival time, dose: 200.0 mg/kg/injection, schedule: Q01DX009 (ip), vehicle: saline 101 % of control | endpoint: mean survival time, dose: 200.0 mg/kg/injection, schedule: Q04DX002 (ip), vehicle: other 93 % of control | endpoint: mean survival time, dose: 400.0 mg/kg/injection, schedule: Q01DX009 (ip), vehicle: saline 97 % of control | endpoint: mean survival time, dose: 400.0 mg/kg/injection, schedule: Q04DX002 (ip), vehicle: other 96 % of control

C=CC1CN2CCC1CC2C(O)c1ccnc2ccc(OC)cc12 (configuration not stated) (tested in a mixture with another compound)
inactive: [4] 92 % of control and 95 % of control | [5] 95 % of control and 89 % of control | [7] 103 % of control and 98 % of control | [1] 99 % of control and 93 % of control | [6] 96 % of control | [8] 88 % of control and 95 % of control | [2] 92 % of control and 90 % of control | endpoint: mean survival time, dose: 400.0 mg/kg/injection, schedule: Q01DX001 (ip), vehicle: saline 89 % of control

Cc1ccc(C#CC(C)(C)O)cn1
inactive: [7] 94 % of control | [8] 102 % of control | endpoint: mean survival time, dose: 400.0 mg/kg/injection, schedule: Q01DX009 (ip), vehicle: saline with Tween-80 122 % of control

CCOC(=O)Nc1cc(NCCc2ccccc2)c(N)c(N)n1
inactive: endpoint: mean survival time, dose: 50.0 mg/kg/injection, schedule: Q01DX001 (ip), vehicle: saline 101 % of control | [5] 92 % of control

c1ccc(C2CC([P+](c3ccccc3)(c3ccccc3)c3ccccc3)=NN2)cc1 (configuration not stated)
inactive: endpoint: mean survival time, dose: 2.7 mg/kg/injection, schedule: Q01DX009 (ip), vehicle: Klucel (hydroxypropylcellulose) (HPC) 110 % of control | endpoint: mean survival time, dose: 4.1 mg/kg/injection, schedule: Q01DX009 (ip), vehicle: Klucel (hydroxypropylcellulose) (HPC) 112 % of control | endpoint: mean survival time, dose: 5.5 mg/kg/injection, schedule: Q04DX003 (ip), vehicle: Klucel (hydroxypropylcellulose) (HPC) 106 % of control | endpoint: mean survival time, dose: 6.25 mg/kg/injection, schedule: Q01DX009 (ip), vehicle: Klucel (hydroxypropylcellulose) (HPC) 108 % of control | endpoint: mean survival time, dose: 8.2 mg/kg/injection, schedule: Q04DX003 (ip), vehicle: Klucel (hydroxypropylcellulose) (HPC) 106 % of control | endpoint: mean survival time, dose: 9.3 mg/kg/injection, schedule: Q01DX009 (ip), vehicle: Klucel (hydroxypropylcellulose) (HPC) 110 % of control | endpoint: mean survival time, dose: 11.0 mg/kg/injection, schedule: Q04DX002 (ip), vehicle: Klucel (hydroxypropylcellulose) (HPC) 102 % of control | endpoint: mean survival time, dose: 12.5 mg/kg/injection, schedule: Q04DX003 (ip), vehicle: Klucel (hydroxypropylcellulose) (HPC) 104 % of control | endpoint: mean survival time, dose: 14.0 mg/kg/injection, schedule: Q01DX009 (ip), vehicle: Klucel (hydroxypropylcellulose) (HPC) 102 % of control | endpoint: mean survival time, dose: 16.0 mg/kg/injection, schedule: Q04DX002 (ip), vehicle: Klucel (hydroxypropylcellulose) (HPC) 95 % of control | endpoint: mean survival time, dose: 18.0 mg/kg/injection, schedule: Q04DX003 (ip), vehicle: Klucel (hydroxypropylcellulose) (HPC) 108 % of control | endpoint: mean survival time, dose: 22.0 mg/kg/injection, schedule: Q01DX001 (ip), vehicle: Klucel (hydroxypropylcellulose) (HPC) 104 % of control | endpoint: mean survival time, dose: 25.0 mg/kg/injection, schedule: Q04DX002 (ip), vehicle: Klucel (hydroxypropylcellulose) (HPC) 102 % of control | endpoint: mean survival time, dose: 28.0 mg/kg/injection, schedule: Q04DX003 (ip), vehicle: Klucel (hydroxypropylcellulose) (HPC) 108 % of control | endpoint: mean survival time, dose: 35.0 mg/kg/injection, schedule: Q01DX001 (ip), vehicle: Klucel (hydroxypropylcellulose) (HPC) 110 % of control | endpoint: mean survival time, dose: 35.0 mg/kg/injection, schedule: Q04DX002 (ip), vehicle: Klucel (hydroxypropylcellulose) (HPC) 96 % of control | endpoint: mean survival time, dose: 55.0 mg/kg/injection, schedule: Q04DX002 (ip), vehicle: Klucel (hydroxypropylcellulose) (HPC) 104 % of control

CC1(C)N=C(N)N=C(N)N1c1cccc(Cl)c1Cl
inactive: endpoint: mean survival time, dose: 5.0 mg/kg/injection, schedule: Q04DX003 (ip), vehicle: saline 105 % of control | endpoint: mean survival time, dose: 10.0 mg/kg/injection, schedule: Q04DX003 (ip), vehicle: saline 112 % of control | endpoint: mean survival time, dose: 20.0 mg/kg/injection, schedule: Q04DX003 (ip), vehicle: saline 115 % of control

NC(Cc1ccc(N(CCCl)Cc2ccccc2)cc1)C(=O)O (configuration not stated)
inactive: endpoint: mean survival time, dose: 3.12 mg/kg/injection, schedule: Q01DX009 (ip), vehicle: distilled water + Tween-80 103 % of control and 107 % of control | endpoint: mean survival time, dose: 3.13 mg/kg/injection, schedule: Q01DX009 (ip), vehicle: distilled water + Tween-80 106 % of control

C=CCCCC[P+](c1ccccc1)(c1ccccc1)c1ccccc1
inactive: endpoint: mean survival time, dose: 3.0 mg/kg/injection, schedule: Q01DX015 (ip), vehicle: saline 97 % of control | endpoint: mean survival time, dose: 12.0 mg/kg/injection, schedule: Q01DX015 (ip), vehicle: saline 100 % of control | endpoint: mean survival time, dose: 24.0 mg/kg/injection, schedule: Q01DX015 (ip), vehicle: saline 97 % of control

COc1ccc(C(C#N)=C2C=CC(=NO)C=C2)cc1
inactive: [1] 98 % of control | [2] 95 % of control | [3] 101 % of control

Source: PubChem BioAssay AID256 (DTP/NCI, 2004)
